Laboratory results as given in patent publication US6727084B1, “Cold-active beta-galactosidase, the process for its preparation and the use thereof” (Universite de Liege, priority 1999, dated 2004).
Entries after “also recorded” stand apart in the source; their conditions may differ.

Key:
[1] = target: T1, E. coli β-galactosidase (Sigma G2513) (Escherichia coli, UniProt P00722); assay: kinetics of E. coli β-galactosidase (control) with ONPG as substrate; assay type: biochemical
From the text: (§1) The definition of enzyme activity units can be defined according to the substrate used with lactose as a substrate, the unit of activity is defined as the amount of enzyme which releases one micro-mole glucose in one minute under standard reaction conditions (temperature, pH). Another commonly used substrate is ortho-nitrophenyl-β-D galactopyranoside (ONPG) and in this case, the unit of activity is defined as the amount of enzyme which hydrolyses one micro-mole of ONPG in one minute under standard reaction conditions.
(§2) The β-galactosidase from Escherichia coli used as a control was from Sigma (G2513).
(§3) The activation energy (Ea) was determined from the slope (−Ea/R) of Arrhenius plot and the thermodynamic activation parameters of the reaction were calculated according to the following equations: […]
(§4) At 8° C., the kcat (s^−1) of the LMG P-19143 enzyme is twice as high as that of E. coli enzyme. Theses curves have been used to construct Arrhenius plots and to calculate the activation energy parameters of the reaction as shown in table 2.
(§5) Assays were performed with ONPG as a substrate at various concentrations and at different temperatures to determine Km and Vmax values.

[2] = target: T2, Pseudoalteromonas haloplanktis LMG P-19143 cold-active β-galactosidase (lac Z), native, SEQ ID NO: 2 (Pseudoalteromonas haloplanktis, UniProt P81650); assay: kinetics of LMG P-19143 β-galactosidase with ONPG as substrate; assay type: biochemical; parameters: ORF of 1038 residues
From the text: as §1, §3, §4, §5

[3] = target: T1, E. coli β-galactosidase (Sigma G2513); assay: biochemical; conditions: read-out: stimulation of enzyme activity by 2-mercaptoethanol (factor)
Procedure: as §2
(§6) The effect of K+ was determined by assaying activity in 100 mM phosphate buffer containing KCl at concentrations from 0 to 100 mM. LMG P-19143 β-galactosidase optimal activity was recorded using a KCl concentration of 80 mM whereas the E. coli β-galactosidase optimal activity was recorded at a KCl concentration of 40 mM. At theses concentrations, KCl stimulated the activity of both enzymes by a factor of 1.5.
(§7) Optimal activity of the LMG P-19143 enzyme was recorded at 80 mM 2-mercaptoethanol and that of E. coli enzyme at 40 mM 2-mercaptoethanol. At these concentrations, the reducing agent stimulated LMG P-19143 enzyme activity twofold and E. coli enzyme by a factor of 1.5.

[4] = target: T2, Pseudoalteromonas haloplanktis LMG P-19143 cold-active β-galactosidase (lac Z), native, SEQ ID NO: 2; assay: effect of 2-mercaptoethanol on LMG P-19143 β-galactosidase activity; assay type: biochemical; parameters: ORF of 1038 residues; conditions: 80 mM 2-mercaptoethanol (optimal activity), 100 mM phosphate buffer; ONPG
Procedure: as §6, §7

[5] = target: T2, Pseudoalteromonas haloplanktis LMG P-19143 cold-active β-galactosidase (lac Z), native, SEQ ID NO: 2; assay: kinetics of LMG P-19143 β-galactosidase with lactose as substrate (galactose dehydrogenase assay); assay type: biochemical; parameters: ORF of 1038 residues; conditions: 25° C.
From the text: as §1
Km was also determined at 25° C. with lactose (1 mM to 50 mM) as a substrate.

[6] = target: T2, Pseudoalteromonas haloplanktis LMG P-19143 cold-active β-galactosidase (lac Z), native, SEQ ID NO: 2; assay: biochemical; conditions: pH 7.5, read-out: residual activity after EDTA treatment (% of initial activity)
Procedure: The assay of β-galactosidase was carried out using 3 mM ONPG (ortho-nitrophenyl-β-galactopyranoside) as a chromogenic substrate in 100 mM sodium phosphate buffer, pH 7,3, 1 mM MgCl2, 100 mM 2-mercaptoethanol (Sigma). Activities toward the chromogenic substrate were recorded in a thermostated Uvicon 860 Spectrophotometer (Kontron) at 25° C. and calculated on the basis of an extinction coefficient for o-nitrophenol of 3.5 mM^−1 cm^−1 at 410 nm (Miller, J. H. and Reznikoff, W. S., Eds. 1978; The Operon. Cold Spring Harbor Laboratory Press, N.Y.). Assays using lactose as a substrate were carried out using various concentrations of lactose. The reaction was stopped by boiling the sample in a water bath for 3 minutes. The galactose dehydrogenase assay was used to measure the amount of galactose released by the enzyme (Schachter H. 1975, Enzymatic microassays for D-Mannose, D-Glucose, D-Galactose, L-Fucose, and D-Glucosamine. Methods Enzymol., 41: 3-10.) The specific activity of β-galactosidase is defined as micro-moles of galactose released per minute per mg of protein.
To determine the effect of divalent metal ions on activity, assays were performed in 100 mM phosphate buffer at 25° C. and pH 7.5. The enzyme preparation was treated with 5 mM EDTA to complex metal ions.

T2 sequence (P81650 whole entry): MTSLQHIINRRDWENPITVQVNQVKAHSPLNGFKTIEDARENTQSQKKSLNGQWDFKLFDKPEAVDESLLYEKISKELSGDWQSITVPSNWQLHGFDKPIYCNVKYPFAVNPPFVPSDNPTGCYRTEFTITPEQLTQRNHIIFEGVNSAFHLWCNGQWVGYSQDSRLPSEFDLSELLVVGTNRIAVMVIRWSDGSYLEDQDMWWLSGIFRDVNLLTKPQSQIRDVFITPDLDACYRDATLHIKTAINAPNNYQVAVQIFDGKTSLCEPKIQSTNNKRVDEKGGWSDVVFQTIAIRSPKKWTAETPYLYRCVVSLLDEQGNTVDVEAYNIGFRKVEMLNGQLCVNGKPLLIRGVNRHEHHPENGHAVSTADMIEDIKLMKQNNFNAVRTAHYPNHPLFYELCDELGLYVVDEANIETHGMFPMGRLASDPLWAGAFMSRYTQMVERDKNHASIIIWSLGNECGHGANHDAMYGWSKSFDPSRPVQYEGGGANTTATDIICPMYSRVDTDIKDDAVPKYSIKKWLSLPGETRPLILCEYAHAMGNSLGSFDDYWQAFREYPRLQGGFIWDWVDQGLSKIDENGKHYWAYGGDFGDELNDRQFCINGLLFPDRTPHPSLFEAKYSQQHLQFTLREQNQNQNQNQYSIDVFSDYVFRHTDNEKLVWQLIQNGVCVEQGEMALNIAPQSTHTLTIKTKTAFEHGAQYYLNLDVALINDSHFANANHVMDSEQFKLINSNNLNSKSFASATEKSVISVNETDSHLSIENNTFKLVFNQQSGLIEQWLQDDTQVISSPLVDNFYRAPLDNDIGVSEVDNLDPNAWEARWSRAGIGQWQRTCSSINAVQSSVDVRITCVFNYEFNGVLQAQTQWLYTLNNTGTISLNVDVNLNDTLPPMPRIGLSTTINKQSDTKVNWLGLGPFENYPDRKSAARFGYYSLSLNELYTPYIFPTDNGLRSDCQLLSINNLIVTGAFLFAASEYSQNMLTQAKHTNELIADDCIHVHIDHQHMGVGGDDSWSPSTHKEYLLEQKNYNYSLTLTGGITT
T1 sequence (P00722 whole entry): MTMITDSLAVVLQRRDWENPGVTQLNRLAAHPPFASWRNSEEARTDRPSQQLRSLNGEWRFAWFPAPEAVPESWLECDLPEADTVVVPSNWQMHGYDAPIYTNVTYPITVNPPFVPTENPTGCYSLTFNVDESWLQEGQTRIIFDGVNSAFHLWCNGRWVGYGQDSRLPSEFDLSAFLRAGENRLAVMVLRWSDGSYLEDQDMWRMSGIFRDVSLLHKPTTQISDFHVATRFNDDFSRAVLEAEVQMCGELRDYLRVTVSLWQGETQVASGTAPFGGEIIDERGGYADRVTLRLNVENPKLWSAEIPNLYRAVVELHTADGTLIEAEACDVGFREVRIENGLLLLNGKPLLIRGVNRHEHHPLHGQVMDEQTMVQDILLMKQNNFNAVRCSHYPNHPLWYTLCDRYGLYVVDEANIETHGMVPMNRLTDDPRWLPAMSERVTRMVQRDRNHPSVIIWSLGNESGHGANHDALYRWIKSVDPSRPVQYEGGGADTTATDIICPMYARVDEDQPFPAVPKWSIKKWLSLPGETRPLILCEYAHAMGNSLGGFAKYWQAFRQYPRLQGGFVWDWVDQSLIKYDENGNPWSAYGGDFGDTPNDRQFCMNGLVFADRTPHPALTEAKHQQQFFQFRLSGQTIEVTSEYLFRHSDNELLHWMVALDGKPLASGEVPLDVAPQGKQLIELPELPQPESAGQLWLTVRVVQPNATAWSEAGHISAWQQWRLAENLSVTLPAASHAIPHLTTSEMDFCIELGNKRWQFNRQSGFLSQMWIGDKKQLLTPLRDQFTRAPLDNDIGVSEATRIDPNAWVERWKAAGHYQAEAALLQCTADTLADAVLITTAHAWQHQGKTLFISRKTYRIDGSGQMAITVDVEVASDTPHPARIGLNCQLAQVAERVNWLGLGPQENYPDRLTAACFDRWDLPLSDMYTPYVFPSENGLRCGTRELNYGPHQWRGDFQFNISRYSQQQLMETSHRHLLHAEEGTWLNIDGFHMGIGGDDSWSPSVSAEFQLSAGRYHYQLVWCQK

## O=[N+]([O-])c1ccccc1O[C@@H]1O[C@H](CO)[C@H](O)[C@H](O)[C@H]1O [ONPG, ortho-nitrophenyl-β-D galactopyranoside]
[1]; 10° C.
  apparent Km (compared with LMG P-19143 enzyme): nearly the same
[1]; 20° C.
  kcat: 199 s⁻¹
[1]; at low temperature
  km (comparison of both enzymes): comparable
[2]; ONPG as substrate, 8° C.
  kcat relative to that of E. coli enzyme: twice as high
[2]; ONPG as substrate, 10° C.
  apparent Km (compared with E. coli enzyme): nearly the same
[2]; ONPG as substrate, 20° C.
  kcat: 408 s⁻¹
[2]; ONPG as substrate, at low temperature
  km (comparison of both enzymes): comparable
[2]; ONPG as substrate, FIG. 6
  physiological efficiency (kcat/km) relative to E. coli enzyme: about three times higher
[2]; ONPG, temperature range of 0-40° C.
  turnover (kcat) relative to E. coli enzyme: higher

## OCCS [2-mercaptoethanol]
[3]
  fold induction at 40000 µM: 1.5
[4]
  stimulation of enzyme activity by 2-mercaptoethanol: twofold

## OC[C@H]1O[C@@H](O[C@H]2[C@H](O)[C@@H](O)C(O)O[C@@H]2CO)[C@H](O)[C@@H](O)[C@H]1O (stereo partly drawn) [lactose]
[5]
  km relative to E. coli enzyme: five times lower
  physiological efficiency (kcat/km) relative to E. coli β-galactosidase: eighty times as high; also recorded: ninety times higher
  turnover (kcat) relative to E. coli enzyme: fifteen times

## O=C(O)CN(CCN(CC(=O)O)CC(=O)O)CC(=O)O [EDTA]
[6]
  remaining activity at 5000 µM: < 10%
